In ChEMBL document CHEMBL2074444, “A comparison of commonly used polyethoxylated pharmaceutical excipients on their ability to inhibit P-glycoprotein activity in vitro” (J Pharm Sci, 2002) one finds Activity data, which are given here for 3 compounds.

What all share (assay type): functional, cell-based
The target of data set [1] is T1, ATP-dependent translocase ABCB1 (Homo sapiens, UniProt P08183). As to the kind of experiment: TP_TRANSPORTER: inhibition of Taxol transepithelial transport (basal to apical)(Taxol: 0.04-0.06 uM, Cremophor EL: 0.1 %) in MDR1-expressing MDCK cells. Particulars: dog.
T1 sequence (P08183 whole entry): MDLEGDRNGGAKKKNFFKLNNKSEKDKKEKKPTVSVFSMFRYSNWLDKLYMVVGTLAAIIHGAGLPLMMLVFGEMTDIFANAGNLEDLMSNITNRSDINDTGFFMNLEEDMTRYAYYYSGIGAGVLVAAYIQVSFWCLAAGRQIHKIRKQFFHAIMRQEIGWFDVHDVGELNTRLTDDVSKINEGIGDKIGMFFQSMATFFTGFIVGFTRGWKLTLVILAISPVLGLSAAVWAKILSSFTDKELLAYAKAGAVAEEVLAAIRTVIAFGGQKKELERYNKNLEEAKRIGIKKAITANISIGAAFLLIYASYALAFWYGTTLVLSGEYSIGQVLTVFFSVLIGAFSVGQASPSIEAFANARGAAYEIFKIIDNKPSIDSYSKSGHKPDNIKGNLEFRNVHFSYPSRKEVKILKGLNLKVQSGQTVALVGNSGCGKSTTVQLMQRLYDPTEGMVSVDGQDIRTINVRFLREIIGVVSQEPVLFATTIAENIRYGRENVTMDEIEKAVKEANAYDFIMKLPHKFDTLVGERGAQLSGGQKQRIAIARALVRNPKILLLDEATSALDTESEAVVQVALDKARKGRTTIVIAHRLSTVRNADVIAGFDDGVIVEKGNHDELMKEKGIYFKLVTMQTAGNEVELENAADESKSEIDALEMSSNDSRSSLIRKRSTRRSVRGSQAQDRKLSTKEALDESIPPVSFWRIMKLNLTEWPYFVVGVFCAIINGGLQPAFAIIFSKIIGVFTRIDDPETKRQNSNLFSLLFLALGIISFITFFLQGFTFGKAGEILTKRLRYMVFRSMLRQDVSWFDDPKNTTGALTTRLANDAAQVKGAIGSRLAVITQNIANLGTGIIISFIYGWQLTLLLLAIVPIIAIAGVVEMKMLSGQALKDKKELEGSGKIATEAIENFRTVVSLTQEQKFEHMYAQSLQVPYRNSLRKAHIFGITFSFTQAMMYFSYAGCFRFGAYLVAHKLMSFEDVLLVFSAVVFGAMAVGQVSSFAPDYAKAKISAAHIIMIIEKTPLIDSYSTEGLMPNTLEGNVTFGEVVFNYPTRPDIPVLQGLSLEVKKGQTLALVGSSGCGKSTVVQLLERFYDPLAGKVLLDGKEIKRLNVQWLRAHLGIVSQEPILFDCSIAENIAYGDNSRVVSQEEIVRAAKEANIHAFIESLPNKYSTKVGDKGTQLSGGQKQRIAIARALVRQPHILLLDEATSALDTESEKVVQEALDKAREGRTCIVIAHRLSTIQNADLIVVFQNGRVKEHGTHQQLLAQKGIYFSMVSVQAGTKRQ
In data set [2] the target is T1, ATP-dependent translocase ABCB1. Kind of data set: TP_TRANSPORTER: inhibition of Taxol transepithelial transport (basal to apical)(Taxol: 0.04-0.06 uM, Cremophor EL: 0.1 %) in Caco-2 cells. (Caco-2 cells form a polarised layer with tight junctions and transporters.)
The target is the same in data set [3]. As to the kind of experiment: TP_TRANSPORTER: inhibition of Taxol transepithelial transport (basal to apical)(Taxol: 0.04-0.06 uM, Tween 80: 0.05 %) in Caco-2 cells.
The target is the same in data set [4]. Kind of data set: TP_TRANSPORTER: inhibition of Taxol transepithelial transport (basal to apical)(Taxol: 0.04-0.06 uM, Tween 80: 0.05 %) in MDR1-expressing MDCK cells. Particulars: dog.
The target is the same in data set [5]. As to the kind of experiment: TP_TRANSPORTER: inhibition of Taxol transepithelial transport (basal to apical) (Taxol: 0.04-0.06 uM, PEG-300: 20 %) in MDR1-expressing MDCK cells. Particulars: dog.
Data set [6] shares this target. As to the kind of experiment: TP_TRANSPORTER: inhibition of Taxol transepithelial transport (basal to apical) (Taxol: 0.04-0.06 uM, PEG-300: 20 %) in Caco-2 cells.

With CREMOPHOR EL, the Activity result in data set [1] was “is not an inhibitor [-]”; in data set [2], “inhibitor [+]”.
As for `CCCCCCCC/C=C\CCCCCCCC(=O)OCCOCC(OCCO)C1OCC(OCCO)C1OCCO` (stereo unspecified) [TWEEN 80], the Activity entry in data set [3] was “inhibitor [+]”; in data set [4], “is not an inhibitor [-]”.
Take PEG 300: the Activity result in data set [5] and in data set [6] was “inhibitor [+]” throughout.
